Results as given in patent US11572590B2, “Methods for evaluating tumor cell spheroids using 3D microfluidic cell culture device” (Dana-Farber Cancer Institute, Inc., priority 2017, dated 2023).
Where two headings read alike, the source gives them in different places.

Key:
Assay in all cases: SelectScreen Kinase Profiling, single point inhibition and IC50 for off-target kinases
Type in all cases: biochemical
off-target kinases [1] = target: off-target kinases (Homo sapiens, UniProt Q9H2G2); conditions: SLK, LanthaScreen Binding
off-target kinases [2] = target: T1, off-target kinases (Homo sapiens, UniProt P42680); conditions: TEC, LanthaScreen Binding
T1 sequence (P42680 1-631): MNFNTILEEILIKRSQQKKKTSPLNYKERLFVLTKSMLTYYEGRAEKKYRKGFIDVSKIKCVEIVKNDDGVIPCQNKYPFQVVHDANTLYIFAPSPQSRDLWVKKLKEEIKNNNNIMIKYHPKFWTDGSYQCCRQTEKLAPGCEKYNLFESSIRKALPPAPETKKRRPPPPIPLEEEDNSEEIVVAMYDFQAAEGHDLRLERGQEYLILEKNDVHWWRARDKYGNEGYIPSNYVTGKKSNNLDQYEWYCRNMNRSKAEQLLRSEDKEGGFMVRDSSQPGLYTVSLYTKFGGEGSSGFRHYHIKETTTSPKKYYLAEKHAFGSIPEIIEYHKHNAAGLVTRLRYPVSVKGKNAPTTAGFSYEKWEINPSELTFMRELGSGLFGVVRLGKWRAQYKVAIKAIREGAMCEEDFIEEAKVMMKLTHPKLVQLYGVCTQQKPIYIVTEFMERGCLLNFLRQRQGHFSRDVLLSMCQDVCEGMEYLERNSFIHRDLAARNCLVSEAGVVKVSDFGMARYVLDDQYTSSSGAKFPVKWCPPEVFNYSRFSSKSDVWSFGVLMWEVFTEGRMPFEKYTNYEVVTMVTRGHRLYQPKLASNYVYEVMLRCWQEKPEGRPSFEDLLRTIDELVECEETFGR

off-target kinases [3] = target: T2, off-target kinases (Homo sapiens, UniProt P54762); conditions: EPHB1, ZLYTE, ATP Km app
T2 sequence (P54762 18-984): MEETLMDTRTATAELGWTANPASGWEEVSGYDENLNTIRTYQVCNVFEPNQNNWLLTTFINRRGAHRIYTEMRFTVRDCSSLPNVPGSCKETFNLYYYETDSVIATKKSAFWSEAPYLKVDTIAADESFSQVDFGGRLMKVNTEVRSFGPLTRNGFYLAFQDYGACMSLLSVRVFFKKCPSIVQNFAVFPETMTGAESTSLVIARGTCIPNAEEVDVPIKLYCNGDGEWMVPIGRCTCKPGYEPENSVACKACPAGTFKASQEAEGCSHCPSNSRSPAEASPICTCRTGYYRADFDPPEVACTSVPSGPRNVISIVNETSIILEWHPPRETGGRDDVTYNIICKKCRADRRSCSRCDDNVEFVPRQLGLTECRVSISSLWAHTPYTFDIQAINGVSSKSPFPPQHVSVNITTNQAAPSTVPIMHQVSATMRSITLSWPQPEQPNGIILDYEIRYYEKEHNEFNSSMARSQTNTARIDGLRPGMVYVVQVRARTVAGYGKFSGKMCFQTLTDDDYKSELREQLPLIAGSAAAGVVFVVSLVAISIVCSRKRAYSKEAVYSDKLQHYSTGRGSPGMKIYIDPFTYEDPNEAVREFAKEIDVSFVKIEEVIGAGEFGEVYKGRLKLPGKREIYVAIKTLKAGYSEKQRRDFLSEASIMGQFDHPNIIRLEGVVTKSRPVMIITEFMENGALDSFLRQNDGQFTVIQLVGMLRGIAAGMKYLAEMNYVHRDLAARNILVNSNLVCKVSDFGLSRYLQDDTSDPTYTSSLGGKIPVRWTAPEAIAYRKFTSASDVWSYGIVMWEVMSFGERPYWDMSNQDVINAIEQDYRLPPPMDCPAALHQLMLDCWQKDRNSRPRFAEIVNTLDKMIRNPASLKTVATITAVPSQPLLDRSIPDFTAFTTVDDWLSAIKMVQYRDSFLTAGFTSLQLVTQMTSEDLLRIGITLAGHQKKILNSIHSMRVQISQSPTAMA

Chain of off-target kinases (Homo sapiens, UniProt Q9H2G2) (Q9H2G2 whole entry): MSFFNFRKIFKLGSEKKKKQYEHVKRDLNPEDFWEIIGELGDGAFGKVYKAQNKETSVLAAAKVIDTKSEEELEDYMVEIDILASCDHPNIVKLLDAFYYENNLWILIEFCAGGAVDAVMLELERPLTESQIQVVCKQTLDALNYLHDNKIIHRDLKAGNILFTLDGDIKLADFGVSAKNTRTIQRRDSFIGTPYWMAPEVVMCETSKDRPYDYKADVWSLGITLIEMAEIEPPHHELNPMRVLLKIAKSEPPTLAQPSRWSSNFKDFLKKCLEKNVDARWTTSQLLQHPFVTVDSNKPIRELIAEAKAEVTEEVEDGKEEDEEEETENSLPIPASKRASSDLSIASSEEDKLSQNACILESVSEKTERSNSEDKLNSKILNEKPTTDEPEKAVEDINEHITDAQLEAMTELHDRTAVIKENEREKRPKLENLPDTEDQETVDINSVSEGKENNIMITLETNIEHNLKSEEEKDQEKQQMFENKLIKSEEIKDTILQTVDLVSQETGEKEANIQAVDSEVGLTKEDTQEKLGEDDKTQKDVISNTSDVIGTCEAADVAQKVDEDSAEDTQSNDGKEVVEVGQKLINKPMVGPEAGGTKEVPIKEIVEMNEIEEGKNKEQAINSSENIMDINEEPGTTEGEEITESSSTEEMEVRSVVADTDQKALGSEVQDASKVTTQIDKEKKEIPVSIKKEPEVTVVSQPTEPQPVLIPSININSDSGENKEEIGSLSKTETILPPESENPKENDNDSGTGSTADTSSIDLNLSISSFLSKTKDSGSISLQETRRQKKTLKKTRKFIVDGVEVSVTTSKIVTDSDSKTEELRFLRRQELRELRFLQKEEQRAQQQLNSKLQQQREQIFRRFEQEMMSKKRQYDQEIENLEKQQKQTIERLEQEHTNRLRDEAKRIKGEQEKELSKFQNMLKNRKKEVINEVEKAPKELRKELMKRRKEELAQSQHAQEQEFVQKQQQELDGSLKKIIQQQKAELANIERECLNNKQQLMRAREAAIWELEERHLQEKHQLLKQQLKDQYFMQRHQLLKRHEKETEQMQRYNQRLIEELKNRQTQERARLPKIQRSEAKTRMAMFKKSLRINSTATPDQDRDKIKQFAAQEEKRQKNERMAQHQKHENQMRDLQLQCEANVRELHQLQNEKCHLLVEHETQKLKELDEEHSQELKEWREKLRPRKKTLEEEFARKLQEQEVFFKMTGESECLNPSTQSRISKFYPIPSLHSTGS

Structure (SMILES): N#Cc1cc(-c2ncnc(Nc3ccc(N4CCN(C5COC5)CC4)cc3)n2)ccc1OC1CCOCC1 [Compound 1, 5-(4-((4-(4-(oxetan-3-yl)piperazin-1-yl)phenyl)amino)-1,3,5-triazin-2-yl)-2-((tetrahydro-2H-pyran-4-yl)oxy)benzonitrile]
- inhibition (off-target kinases [1]; read-out: % Inhibition 1): 29%
- inhibition (off-target kinases [1]; read-out: % Inhibition 2): 32%
- inhibition (off-target kinases [1]; read-out: % Inhibition Avg): 30%
- inhibition (off-target kinases [2]; read-out: % Inhibition 1): 0%
- inhibition (off-target kinases [2]; read-out: % Inhibition 2): 2%
- inhibition (off-target kinases [2]; read-out: % Inhibition Avg): 1%
- inhibition (off-target kinases [3]; read-out: % Inhibition 1): 34%
- inhibition (off-target kinases [3]; read-out: % Inhibition 2): 31%
- inhibition (off-target kinases [3]; read-out: % Inhibition Avg): 33%
